One experiment deals with T1, OGFOD1 (Homo sapiens, UniProt Q8N543).
T1 construct: made in house
T1 sequence (Q8N543 1-542): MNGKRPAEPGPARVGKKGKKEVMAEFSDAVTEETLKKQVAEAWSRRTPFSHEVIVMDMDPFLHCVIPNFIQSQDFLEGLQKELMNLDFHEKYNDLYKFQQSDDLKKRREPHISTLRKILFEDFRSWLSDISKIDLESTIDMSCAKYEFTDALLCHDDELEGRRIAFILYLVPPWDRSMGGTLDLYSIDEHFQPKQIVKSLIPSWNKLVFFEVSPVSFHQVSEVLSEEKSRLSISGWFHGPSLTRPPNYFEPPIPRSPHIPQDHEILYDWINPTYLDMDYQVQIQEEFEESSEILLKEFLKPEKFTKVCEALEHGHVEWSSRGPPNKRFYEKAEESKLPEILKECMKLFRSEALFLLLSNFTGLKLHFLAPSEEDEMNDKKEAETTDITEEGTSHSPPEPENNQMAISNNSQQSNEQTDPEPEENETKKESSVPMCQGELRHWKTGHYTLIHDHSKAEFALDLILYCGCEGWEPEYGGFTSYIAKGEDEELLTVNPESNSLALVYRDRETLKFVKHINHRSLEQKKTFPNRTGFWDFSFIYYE
The experiment is described as follows: MALDI-TOF MS OGFOD1 hydroxylation assay. The experiment is classed as biochemical. Here is the method:
MALDI-TOF MS OGFOD1 hydroxylation assays
Recombinant human OGFOD1 was prepared as reported,11 and stored at -80 °C in 50 mM HEPES (pH 7.5), 150 mM NaCl, 1 mM DTT and 5% (w/v) glycerol after purification with immobilized metal affinity chromatography. Activity assays were performed by determining the extent of hydroxylation of a 20-residue fragment of human RPS23 containing amino acid […]
residues 51-70 (H2N-[…]-CONH2) by matrix-assisted laser desorption/ionisation time-of-flight mass spectrometry (MALDI-TOF MS) using a Waters® Micromass® MALDI micro MX™ mass spectrometer and MassLynx™ 4.1 as described 12.
The optimised hydroxylation assay involved incubation of OGFOD1 (1 μM) with inhibitor (1 % v/v in DMSO) in the presence of Fe(II) (50 μM), 2OG (25 μM), L-ascorbic acid (100 μM) and RPS2351-70 (25 μM) in HEPES (50 mM, pH 7.5) at 37 °C for 15 min. Reagent solution were made as previously reported. (64) Reactions were quenched with formic acid (1 % v/v).
Samples were prepared by mixing reaction mixture (1 μL) with α-cyano-4-hydrocinnamic acid (CHCA) solution (water:acetonitrile 1:1) (1 μL). Dose-response was assessed in 8-point triplicates. Data were analysed using GraphPad Prism 5.04. […]
Fig. S12. In vitro OGFOD1 selectivity profiling of PHD inhibitors. Inhibition of PHD inhibitors against human OGFOD1 as assayed by MALDI11,13 -TOF MS (the protocol is described in the Supplemental Materials and Methods section). No enzyme and DMSO controls were used for the normalisation of RPS23 peptide hydroxylation. Eight concentrations were used to obtained dose-response curve for each compound. Data points presented in the graph are means with standard deviation, n=3. IC50 values (listed in Table 2) were calculated using GraphPad […]
(1 picture or pasted object on this page, not shown here)

Another experiment addresses JARID1B (KDM5B) (Homo sapiens, UniProt Q9UGL1). The experiment is described as follows: AlphaScreen histone demethylase assay. The experiment is classed as biochemical. (In general: In Alpha technology, singlet oxygen from a donor bead excites a nearby acceptor bead.)
The target of experiment [1] is PHD2 catalytic domain (residues 181-426) (Homo sapiens, UniProt Q9GZT9). The experiment is described as follows: NMR competition assays (2OG, CODD, NODD displacement). The experiment is classed as binding. Details: The catalytic domain of human PHD2 (residues 181-426) was used in all; made in house. The following applies: for 2OG displacement: inhibitor at 400 μM, PHD2 at 10 μM, 1H CPMG. Here is the method:
2OG displacement experiments were monitored by CPMG-edited 1H NMR using a Bruker […]
supplemented with 60 µM Zn(II) and increasing concentrations of the inhibitors from a […]
(90°x−[τ−180°y−τ−90°y−τ−180°y−τ]n−acq), was applied. Typical experimental parameters were […]
suppression was achieved by presaturation.
For 13C-CODD and […] displacement experiments, 1D Clean In-Phase (CLIP) HSQC with selective 13C-inversion displacement experiments were conducted using a Bruker AV700 instrument. 3 mm MATCH NMR tubes were used (Cortecnet). All experiments were […]
prolyl-ring. 7 The CLIP-HSQC sequence was used for 1D HSQC experiments (without 13C decoupling).8 Relaxation delay was 2s. The 1JCH was set to 160 Hz. A 6.8 ms Q3.1000 180 degree pulse was used and selective irradiation was applied at the selected chemical shift. […]

[2] abbreviates: isolated recombinant enzyme, 1 μM, read-out: IC50 OGFOD1.
Where [3] appears, read: 1D-selective HSQC with selective 13C inversion.

Like-named read-outs stand apart in the source and are kept apart here. A value given as a limit tells only on which side of the number the result lay.

PHD2 catalytic domain (residues 181-426), sequence (Q9GZT9 181-426): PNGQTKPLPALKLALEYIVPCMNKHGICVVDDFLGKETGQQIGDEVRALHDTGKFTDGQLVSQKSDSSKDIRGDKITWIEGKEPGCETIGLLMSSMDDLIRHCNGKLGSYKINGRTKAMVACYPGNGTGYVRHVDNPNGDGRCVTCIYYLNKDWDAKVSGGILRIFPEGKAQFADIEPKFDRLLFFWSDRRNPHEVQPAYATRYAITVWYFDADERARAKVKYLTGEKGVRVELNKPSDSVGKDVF
JARID1B (KDM5B), sequence (Q9UGL1 whole entry, the tested form may be a part): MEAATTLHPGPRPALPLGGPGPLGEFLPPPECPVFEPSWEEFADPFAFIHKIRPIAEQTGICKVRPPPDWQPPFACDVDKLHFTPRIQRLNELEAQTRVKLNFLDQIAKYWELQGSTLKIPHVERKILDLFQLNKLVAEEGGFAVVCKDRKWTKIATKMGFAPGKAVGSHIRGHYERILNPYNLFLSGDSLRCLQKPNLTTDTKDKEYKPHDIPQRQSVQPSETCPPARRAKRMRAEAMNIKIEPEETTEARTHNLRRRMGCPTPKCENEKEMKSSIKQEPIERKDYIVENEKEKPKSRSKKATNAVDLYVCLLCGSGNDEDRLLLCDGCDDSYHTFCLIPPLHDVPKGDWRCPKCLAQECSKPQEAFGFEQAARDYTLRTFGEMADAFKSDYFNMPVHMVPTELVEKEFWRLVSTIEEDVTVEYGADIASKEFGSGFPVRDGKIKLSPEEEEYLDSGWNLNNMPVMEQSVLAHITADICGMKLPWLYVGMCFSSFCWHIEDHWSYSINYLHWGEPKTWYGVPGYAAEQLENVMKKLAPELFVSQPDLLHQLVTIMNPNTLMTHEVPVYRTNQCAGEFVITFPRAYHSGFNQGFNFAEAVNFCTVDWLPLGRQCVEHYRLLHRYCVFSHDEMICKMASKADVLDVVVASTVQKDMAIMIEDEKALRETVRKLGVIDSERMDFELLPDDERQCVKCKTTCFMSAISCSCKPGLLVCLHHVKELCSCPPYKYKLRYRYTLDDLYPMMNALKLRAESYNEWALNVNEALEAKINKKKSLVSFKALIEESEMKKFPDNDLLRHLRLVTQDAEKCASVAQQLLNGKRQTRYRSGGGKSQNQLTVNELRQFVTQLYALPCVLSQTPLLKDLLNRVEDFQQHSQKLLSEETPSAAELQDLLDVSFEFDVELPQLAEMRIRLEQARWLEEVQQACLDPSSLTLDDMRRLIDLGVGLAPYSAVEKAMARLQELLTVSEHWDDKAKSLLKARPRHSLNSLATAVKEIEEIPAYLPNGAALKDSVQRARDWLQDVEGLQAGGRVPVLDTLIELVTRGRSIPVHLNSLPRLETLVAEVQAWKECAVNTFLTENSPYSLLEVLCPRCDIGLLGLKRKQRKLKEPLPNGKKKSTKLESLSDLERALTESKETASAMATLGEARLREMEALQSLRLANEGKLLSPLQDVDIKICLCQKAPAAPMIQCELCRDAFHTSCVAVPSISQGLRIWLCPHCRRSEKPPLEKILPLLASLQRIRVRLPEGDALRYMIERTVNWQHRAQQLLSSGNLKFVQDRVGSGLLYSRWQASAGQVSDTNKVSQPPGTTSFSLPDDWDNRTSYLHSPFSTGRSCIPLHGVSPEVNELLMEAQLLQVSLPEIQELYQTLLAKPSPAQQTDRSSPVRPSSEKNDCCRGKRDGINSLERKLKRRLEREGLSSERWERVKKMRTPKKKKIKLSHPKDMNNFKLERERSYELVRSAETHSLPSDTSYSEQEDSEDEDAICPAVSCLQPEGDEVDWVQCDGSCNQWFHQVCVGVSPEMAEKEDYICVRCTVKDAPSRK

What is called IC50 is the concentration that inhibits the measured activity by half. As for `Cc1nc(C(=O)NCC(=O)O)c(O)c2ccc(Oc3ccccc3)cc12` [FG-4592], the IC50 on OGFOD1 (setting [2]) is < 1 µM. Moreover, the IC50 on JARID1B (KDM5B) (read-out: IC50 JARID1B (KDM5B)) was > 100 µM. Besides, in experiment [1] (setting [3]), the 13C-CODD displacement result is “efficiently displaced CODD” and the 13C-NODD displacement entry is given as “clearly displaced NODD”. In addition, the 2OG displacement result in experiment [1] was “completely displaced 2OG”.
Regarding `O=C(O)CNC(=O)C1C(=O)N(C2CCCCC2)C(=O)N(C2CCCCC2)C1=O` [GSK1278863], the IC50 at OGFOD1 is 2.1 µM; against JARID1B (KDM5B), > 100 µM.
For the compound `CC(C)(C)OC(=O)c1ccc(-n2[nH]cc(-n3ccnn3)c2=O)nc1` [IOX4], the 50% inhibitory concentration (IC50) is < 1 µM at OGFOD1 (setting [2]) and 87 µM at JARID1B (KDM5B) (read-out: IC50 JARID1B (KDM5B)). The 13C-NODD displacement result in experiment [1] (setting [3]) is “clearly displaced NODD”. For the same compound, in experiment [1], the 2OG displacement result was “completely displaced 2OG”.
The corresponding values for `O=c1c(-n2ccnn2)c[nH]n1-c1cc(N2CCOCC2)ncn1` [Molidustat] are 5.1 µM, > 100 µM, “barely detectable” and “completely displaced 2OG”.
The corresponding values for `O=C(O)CNC(=O)c1ncc(-c2cccc(Cl)c2)cc1O` [Vadadustat] are 1.4 µM, 30 µM, “clearly displaced NODD” and “completely displaced 2OG”.

Source of the values: publication PMC5802278, “Molecular and cellular mechanisms of HIF prolyl hydroxylase inhibitors in clinical trials” (Chemical Science, 2017).
